Values of other authors as cited in patent US20160256406A1, “OLIGOMERIC/POLYMERIC SILICONE FLUIDS FOR USE IN TRANSDERMAL DRUG DELIVERY SYSTEMS” (priority 2015, published 2016).

Assays:
[1] = at RT
[2] = at RT; remark: listed apart in the source

Row | Structure (SMILES) | Octanol/Water Partition Coefficient (Log Kow) [1] | Water Solubility [2] [mg/L]
1 | C[Si]1(C)O[Si](C)(C)O[Si](C)(C)O[Si](C)(C)O1 [D4, Octamethylcyclotetrasiloxane] | 5.1 | 
2 | C[Si](C)(C)O[Si](C)(C)C [L2, Hexamethyldisiloxane] | 4.2 | 
3 | C[Si](C)(C)O[Si](C)(C)O[Si](C)(C)O[Si](C)(C)C [L4, Decamethyltetrasiloxane] | 5.4 | 
4 | C[Si]1(C)O[Si](C)(C)O[Si](C)(C)O[Si](C)(C)O[Si](C)(C)O1 [D5, Decamethylcyclopentasiloxane] | 5.2-5.7 | 0.017 to 0.050
5 | C[Si](C)(C)O[Si](C)(C)O[Si](C)(C)C [L3, Octamethyltrisiloxane] | 4.8 | 
6 | C[Si](C)(C)O[Si](C)(C)O[Si](C)(C)O[Si](C)(C)O[Si](C)(C)C [L5, Dodecamethylpentasiloxane] | 6.0 | 
7 | C[Si]1(C)O[Si](C)(C)O[Si](C)(C)O1 [D3, Hexamethylcyclotrisiloxane] | 4.5 | 
8 | C[Si]1(C)O[Si](C)(C)O[Si](C)(C)O[Si](C)(C)O[Si](C)(C)O[Si](C)(C)O1 [D6, Dodecamethylcyclohexasiloxane] | 6.3 | 0.005
